Experimental data: ChEMBL document CHEMBL1133853, “Cyclopenta[g]quinazoline-based antifolates: the effect of the chirality at the 6-position on the inhibition of thymidylate synthase (TS)” (Bioorg Med Chem Lett, 2001)

The molecules below were run against Thymidylate synthase (Mus musculus, UniProt P07607) (assay: Tested for inhibitory activity against thymidylate synthase of L1210 cells). Settings: read-out: Ki app.
Sequence of Thymidylate synthase (P07607 whole entry): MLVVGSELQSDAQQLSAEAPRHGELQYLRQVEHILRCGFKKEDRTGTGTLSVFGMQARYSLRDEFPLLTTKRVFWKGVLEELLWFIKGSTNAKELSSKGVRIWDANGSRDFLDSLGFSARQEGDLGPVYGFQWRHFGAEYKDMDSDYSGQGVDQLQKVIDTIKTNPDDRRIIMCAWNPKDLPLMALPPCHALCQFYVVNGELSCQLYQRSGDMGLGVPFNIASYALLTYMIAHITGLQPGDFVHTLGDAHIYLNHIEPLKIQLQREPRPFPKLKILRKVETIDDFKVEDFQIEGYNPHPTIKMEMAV
Format: cell-based
`C#CCN(c1ccc(C(=O)N[C@@H](CCC(=O)N[C@H](CCC(=O)O)C(=O)O)C(=O)O)cc1)[C@@H]1CCc2cc3nc(C)[nH]c(=O)c3cc21` was tested, and the Ki was 3.5 nM.
`C#CCN(c1ccc(C(=O)N[C@@H](CCC(=O)NC(CCC(=O)O)c2nnn[nH]2)C(=O)O)cc1)C1CCc2cc3nc(C)nc(O)c3cc21` (stereo partly specified) showed a Ki of 0.2 nM.
Molecule `C#CCN(c1ccc(C(=O)N[C@@H](CCC(=O)NC(CCC(=O)O)C(=O)O)C(=O)O)cc1)C1CCc2cc3nc(C)nc(O)c3cc21` (stereo partly specified) has a Ki of 0.42 nM.
Work on `C#CCN(c1ccc(C(=O)N[C@@H](CCCS(=O)(=O)c2nc[nH]n2)C(=O)O)cc1)[C@H]1CCc2cc3nc(C)nc(O)c3cc21` yielded a Ki of 0.71 nM.
`C#CCN(c1ccc(C(=O)N[C@@H](CCCS(=O)(=O)c2nc[nH]n2)C(=O)O)cc1)[C@@H]1CCc2cc3nc(C)nc(O)c3cc21` gave a Ki of 1200 nM.
`C#CCN(c1ccc(C(=O)N[C@@H](CCC(=O)N[C@H](CCC(=O)O)c2nnn[nH]2)C(=O)O)cc1)[C@@H]1CCc2cc3nc(C)[nH]c(=O)c3cc21` was tested, and the Ki was 2.1 nM.
